Patent US20080313751A1, “Method by Using Human or Mice-Isg12 to Develop and Prepare Drugs and Single Nucleotide Polymorphism in the Isg12 Gene for Diagnostic Use” (priority 2005, published 2008)

Test system: NR4A1
Experiment: Subcellular (cytosol/nucleus) distribution of NR4A1 with overexpressed ISG12
Type: cell-based, human
Conditions: EGFP-tagged NR4A1 and myc-tagged ISG12 overexpressed; data not shown
Text: In order to quantify the effect of ISG12 on the cellular localization of NR4A1, the inventors analyzed the distribution of NR4A1 between the cytosol and the nucleus by separating sub-cellular fractions of 293 cells in which EGFP-tagged NR4A1 was overexpressed in the absence or presence of myc-tagged ISG12. In the presence of ISG12 20.8±7.4% (average±SD from 4 experiments; p<0.05) more NR4A1 was found in the cytosol as in the absence of ISG12. […] A representative example is given (n=3).
When the same experiments were performed with an EGFP-tagged NR4A1 construct (AA248-580) that cannot be exported from the nucleus^24 no influence of ISG12 on subcellular distribution of that construct was seen (FIG. 5). Similarly, the effect of ISG12 on full length NR4A1 was impaired in the presence of leptomycin B that inhibits nuclear export (data not shown).
Human embryonic kidney 293 cells were grown in 6-wells to sub-confluence and then transfected with EGFP-NR4A1 and mycISG12 together or separately. Cell fractionation was performed 30 hours after transfection, using MS buffer (210 mM mannitol, 70 mM sucrose, 5 mM Tris-HCl, pH 7.5 and 1 mM EDTA) containing 1% protease inhibitor cocktail. After homogenizing the cells with a 27 gauge needle 10 times, samples were spun at 1300×g for 10 minutes at 4° C. to pellet the nuclei. […]

SMILES: CCC(=C/[C@H](C)C/C=C/C(C)=C/[C@@H](C)C(=O)[C@@H](C)[C@H](O)[C@@H](C)C/C(C)=C/C(=O)O)/C=C/[C@@H]1OC(=O)C=C[C@@H]1C [leptomycin B]
- effect of ISG12 on full length NR4A1 (nuclear export / subcellular distribution) in the presence of the substance: impaired
